Data published in patent US20080275134A1, “Methods for Treatment of Retinal Degenerative Disease” (University of Washington, priority 2005, published 2008).

Columns and labels:
[1] = target: T1, RPE65 (Bos taurus, UniProt Q28175); assay: gel filtration of RPE proteins with anti-RPE65 immunoblot; type: binding, bovine; details: RPE65 found in fractions 23-34
T1 construct: RPE microsomes were solubilized with 10 mM DHPC; from tissue; host or cells: bovine RPE microsomes, DHPC extract
Description: The specificity of Ret-NH2 was further tested by biochemical assays. […] When the RPE microsomes were solubilized with DHPC, the isomerase activity decreased only slightly. Then [^3H]-Ret-NH2 was added to the RPE extract and loaded on a gel filtration column. Proteins were fractionated and eluted between fractions 18 and 60 (FIG. 3A), while the radioactivity was eluted in fractions 36-38. RPE65 was identified by immunoblotting in fractions 23-34 (FIG. 3B). The most abundant proteins in this fraction were identified by mass spectrometry and include glucose phosphate isomerase, D-glyceraldehyde-3-phosphate dehydrogenase, phosphoglycerate mutase, triose phosphate isomerase, enolase, annexin V, calbindin 2, and LRAT. Identification of less abundant proteins is in progress.
RPE microsomes were solubilized with 10 mM DHPC, incubated with 11,12-di[^3H]-all-trans-Ret-NH2 (1 μM), and loaded on a Superdex 200 column equilibrated with Tris/HCl buffer, pH 7.5, containing 4 mM DHPC. Proteins were eluted with a constant flow rate of 0.4 ml/min. The protein and radioactivity levels of 0.4 ml fractions were examined by SDS-PAGE and scintillation counting (A), and immunoblot with anti-RPE65 and anti-LRAT antibodies (B). The star indicates the fraction associated with maximum radioactivity.

[2] = test system: retinol dehydrogenases; assay: direct assay of retinol dehydrogenases present in the RPE; type: biochemical; details: direct assays
[3] = target: T2, CYP26A1 (Homo sapiens, UniProt O43174); assay: oxidation in HEK-293 cells transfected with CYP26A1 cDNA; type: in vitro ADME
T2 construct: expressed in transfected cells; host or cells: HEK-293
T2 sequence (O43174 1-497): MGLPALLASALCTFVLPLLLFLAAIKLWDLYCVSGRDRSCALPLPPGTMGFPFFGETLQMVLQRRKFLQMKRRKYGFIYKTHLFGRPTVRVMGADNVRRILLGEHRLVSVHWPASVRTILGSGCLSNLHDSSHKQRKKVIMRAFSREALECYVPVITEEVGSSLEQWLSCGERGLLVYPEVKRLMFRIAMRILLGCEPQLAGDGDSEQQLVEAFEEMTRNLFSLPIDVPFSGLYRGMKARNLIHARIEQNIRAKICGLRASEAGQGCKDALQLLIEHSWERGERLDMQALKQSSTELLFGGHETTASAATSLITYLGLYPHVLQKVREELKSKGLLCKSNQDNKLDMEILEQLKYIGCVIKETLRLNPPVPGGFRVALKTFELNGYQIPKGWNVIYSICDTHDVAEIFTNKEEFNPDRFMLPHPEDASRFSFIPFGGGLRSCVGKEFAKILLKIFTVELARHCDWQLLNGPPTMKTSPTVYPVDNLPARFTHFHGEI
Source text: Next, the RA oxidation pathway was investigated. […] In addition to secretion, Ret-NH2 might be degraded first by deamination to all-trans-retinol/retinal, which was seen to increase in Ret-NH2 treated cells. […] These observations explain the long-lasting effect of RetNH2, as the amide is stored and hydrolyzed back to the free amine.

[4] = target: T3, RXR (Mus musculus, UniProt P28700); assay: HEK-293 cells with DR1-lacZ reporter and mouse RXRA, β-galactosidase activity; type: cell-based; details: 48 hours treatment, micromolar concentrations
T3 construct: The RXR-A ORF was then subcloned into pcDNA3.1 Directional TOPO vector; expressed in transfected cells; host or cells: HEK-293, transient transfection with pcDNA3.1 Directional TOPO
T3 sequence (P28700 1-467): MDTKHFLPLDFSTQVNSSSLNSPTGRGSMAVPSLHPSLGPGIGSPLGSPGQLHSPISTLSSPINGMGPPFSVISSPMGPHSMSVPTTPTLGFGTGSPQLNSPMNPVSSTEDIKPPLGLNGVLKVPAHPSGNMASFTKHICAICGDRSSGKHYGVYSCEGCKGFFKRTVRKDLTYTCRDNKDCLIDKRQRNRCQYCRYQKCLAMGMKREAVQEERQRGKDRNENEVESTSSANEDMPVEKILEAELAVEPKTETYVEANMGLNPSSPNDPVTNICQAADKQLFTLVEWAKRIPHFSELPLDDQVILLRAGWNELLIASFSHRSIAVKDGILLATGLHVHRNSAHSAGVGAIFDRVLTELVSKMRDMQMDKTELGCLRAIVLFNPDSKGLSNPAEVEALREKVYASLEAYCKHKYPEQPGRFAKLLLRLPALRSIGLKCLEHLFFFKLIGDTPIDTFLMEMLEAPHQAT

T1 sequence (Q28175 whole entry): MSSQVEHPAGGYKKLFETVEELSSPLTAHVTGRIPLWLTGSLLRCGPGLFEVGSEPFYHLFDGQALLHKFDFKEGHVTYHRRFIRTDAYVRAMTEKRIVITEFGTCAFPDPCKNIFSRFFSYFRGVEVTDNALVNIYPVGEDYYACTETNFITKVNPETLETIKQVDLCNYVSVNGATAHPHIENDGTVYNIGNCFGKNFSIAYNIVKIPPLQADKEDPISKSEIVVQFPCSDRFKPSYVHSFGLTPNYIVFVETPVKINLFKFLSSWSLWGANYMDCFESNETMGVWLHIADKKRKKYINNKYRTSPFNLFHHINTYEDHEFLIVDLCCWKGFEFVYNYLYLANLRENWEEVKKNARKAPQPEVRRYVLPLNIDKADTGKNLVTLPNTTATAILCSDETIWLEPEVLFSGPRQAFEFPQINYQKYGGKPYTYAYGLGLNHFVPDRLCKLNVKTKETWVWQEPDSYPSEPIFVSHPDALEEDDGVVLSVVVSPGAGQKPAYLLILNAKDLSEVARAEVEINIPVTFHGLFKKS

Compound	binding to RPE65 [1]	inhibition of retinol dehydrogenases [2]	oxidation by CYP26A1 [3]	activation of transcription through RXR (DR1 elements) [4]
CC1=C(/C=C/C(C)=C/C=C/C(C)=C/CN)C(C)(C)CCC1 [Ret-NH2, Retinylamine]	does not bind	did not inhibited	no evidence of the presence of hydroxy- or oxo-Ret-NH2	–
CC1=C(/C=C/C(C)=C/C=C/C(C)=C/CN)C(C)(C)CCC1 [all-trans-Ret-NH2, all-trans-retinylamine]	–	–	–	does not activate protein transcription
